Several values for one entry are separate records, joined by “and”; a condition that tells them apart may be missing. Identical values can stand only once.
Tested on: 876862-298-R-J1-PDC complex spheroids, viability % test/control
Experiment: Anticancer human tumor 876862-298-R-J1-PDC patient-derived endometrial carcinoma cell line growth inhibition [CLK]
Conditions: for viability, T/C: stronger effect = lower value; for IC50: curve of compound
Excerpt: A high-throughput screen of multi-cell type tumor spheroids was designed to identify active combinations of […] and targeted small molecules. Complex spheroids include a stromal component modeled by human endothelial cells (HUVEC) and fibroblasts modeled by human mesenchymal stem cells (MSCs). The concentration ranges selected for each drug and investigational agent were based upon clinically achievable concentrations if the clinical Cmax of the agent was known.
Compounds. The drugs and investigational agents: cirtuvivint (SM08502; NSC835563), CC-671 (NSC850746), vemurafenib (NSC761431), tapotoclax (NSC804041), sotorasib (NSC818433), adagrasib (NSC831453), MRTX-1133 (NSC836407), BAY2416964 (NSC825713), copanlisib (NSC816437), inavolisib (NSC800729), abemaciclib (NSC768073), osimertinib (NSC779217), entinostat (NSC756642), eltanexor (KPT-8602, NSC794443), venetoclax (NSC766270), ceralasertib (NSC777638), bortezomib (NSC756655), olaparib (NSC753686), talazoparib (NSC767125), alisertib (NSC759677), peposertib (NSC802822), gemcitabine (NSC613327), 5-fluorouracil (NSC19893), SN-38 (NSC673596), oxaliplatin (NSC266046), paclitaxel (NSC125973), and doxorubicin (NSC123127), were obtained from the National Cancer Institute (NCI) Developmental Therapeutics Program Chemical Repository. The FDA-approved anticancer drug set is available from the Developmental Therapeutics Program at https://dtp.cancer.gov/organization/dscb/obtaining/available plates.htm. […] The stock solutions were prepared in dimethyl sulfoxide (DMSO, Sigma-Aldrich, St. Louis, MO, cat. D2650), except for the platinum complexes which were prepared in saline (Quality Biological, Gaithersburg, MD, cat. 114-055-101), at 800-fold the tested concentration and stored at -70 degrees C prior to their use. All drugs and investigational agents were tested over a range starting from a high concentration at or near the clinical Cmax and decreasing in half-log increments. If the clinical Cmax for an agent had not been determined, the highest concentration tested was 10 microM.
Cell Culture. All cells were maintained in an incubator at 37 degrees C and 5% CO2 with 95% humidity. The PDC lines were cultured according to standard operating procedures established by the NCI PDMR. Briefly, all PDCs were thawed and cultured in Matrigel-coated flasks prepared with a working solution of 1X Ham's F-12 nutrient mix, without supplementation (Invitrogen, Waltham, MA, cat. 11765054), 100 U/mL penicillin-streptomycin (Invitrogen, cat. 15140122), and 2.5% Matrigel (Corning Inc., Corning, NY, cat. 354248) for the first three passages. The 947758-054-R-J2-PDC line was cultured in 6B/Colon 1A media, which includes advanced DMEM/F-12 (Thermo Fisher Scientific, cat. 12634028), 10 mM HEPES (Thermo Fisher Scientific, cat. 15630080), 1X GlutaMAX supplement (Thermo Fisher Scientific, cat. 35050061), 0.1 mg/mL primocin (InvivoGen, cat. ant-pm-2), 10% defined fetal bovine serum, heat inactivated (HyClone Laboratories Inc., cat. SH30070.03HI), 1.25 mM N-Acetyl-L-cysteine (Sigma-Aldrich, cat. A9165), 10 mM nicotinamide (Sigma-Aldrich, cat. N0636), 1X B-27 supplement (Thermo Fisher Scientific, cat. 17504044), 1X N-2 supplement (Thermo Fisher Scientific, cat. 17502048), and 10 microM Y-27632 dihydrochloride (Tocris Bioscience, cat. 1254). The 876862-298-R-J1-PDC was cultured in 6E media, which includes all 6B/Colon 1A media components plus 50% L-WRN conditioned media (ATCC, cat. CRL-3276), 50 ng/mL recombinant human EGF recombinant protein (hEGF; Thermo Fisher Scientific, cat. PHG0311), 10 ng/mL recombinant human fibroblast growth factor 10 (hGFG-10; PeproTech, cat. 100-26), 1 ng/mL recombinant human fibroblast growth factor 2 (hFGF-2; PeproTech, cat. 100-18B), and 1 µM prostaglandin E2 (PGE2; Tocris, cat. 2296). The 227483-062-R1-J1-PDC line was cultured in Panc media, containing all 6E components except hFGF-2, with the addition of 500 nM SB-431542 (Selleckchem, cat. S1067) and 10 nM gastrin (Tocris, cat. 3006). […]
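Further: spheroids exposed to drugs for 7 days before readout.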
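Wherever viability, T/C is given: 100% = DMSO vehicle control wells.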

SMILES	IC50	viability, T/C (compound 0.0316 µM)	viability, T/C (compound 0.1 µM)	viability, T/C (compound 0.316 µM)	viability, T/C (compound 1 µM)	viability, T/C (compound 3.16 µM)	viability, T/C (compound 10 µM)	viability, T/C (compound 0.000949 µM)	viability, T/C (compound 0.003 µM)	viability, T/C (compound 0.00949 µM)	viability, T/C (compound 0.03 µM)	viability, T/C (compound 0.0949 µM)	viability, T/C (compound 0.3 µM)	viability, T/C (compound 0.00316 µM)	viability, T/C (compound 0.01 µM)
C=CC(=O)Nc1cc(Nc2nccc(-c3cn(C)c4ccccc34)n2)c(OC)cc1N(C)CCN(C)C	0.269 µM and 0.29 µM							107% and 103%	98.7% and 109%	100% and 103%	96.7% and 88.7%	81% and 82.2%	46.5% and 48.2%		
CC(C)CC(NC(=O)C(Cc1ccccc1)NC(=O)c1cnccn1)B(O)O (configuration not stated)	0.00199 µM and 0.00164 µM							116% and 88.5%	13.2% and 7.38%	0.57% and 0.51%	0.45% and 0.53%	0.3% and 0.59%	0.2% and 0.9%		
CC(CO)NC(=O)c1cc(-c2ccc(Cl)cc2)nn(-c2cnn(C)c2)c1=O (configuration not stated)	> 10 µM	85% and 116%	92.3% and 95.9%	79.3% and 80.6%	88.4% and 76.2%	71.6% and 78.7%	56% and 64.9%								
CC(Nc1ccc2c(c1)OCCn1cc(N3C(=O)OCC3C(F)F)nc1-2)C(N)=O (configuration not stated)	2.84 µM and 1.21 µM	105% and 86.6%	81.8% and 90.4%	76.5% and 68.3%	72.2% and 51.6%	48.5% and 38.3%	27.7% and 22.8%								
CC1COCCN1c1cc(C2(S(C)(=N)=O)CC2)nc(-c2ccnc3[nH]ccc23)n1 (configuration not stated)	3.89 µM and 2.62 µM	110% and 102%	99.5% and 104%	89.4% and 94.8%	77.1% and 79.5%	55% and 44%	27% and 18.8%								
CCCS(=O)(=O)Nc1ccc(F)c(C(=O)c2c[nH]c3ncc(-c4ccc(Cl)cc4)cc23)c1F	8.63 µM and 7.53 µM	111% and 94.9%	107% and 108%	108% and 97.3%	100% and 110%	91.8% and 83.4%	43.5% and 39.1%								

Continued, in another order:

IC50	SMILES	viability, T/C (compound 0.0316 µM)	viability, T/C (compound 0.1 µM)	viability, T/C (compound 0.316 µM)	viability, T/C (compound 1 µM)	viability, T/C (compound 3.16 µM)	viability, T/C (compound 10 µM)	viability, T/C (compound 0.000949 µM)	viability, T/C (compound 0.003 µM)	viability, T/C (compound 0.00949 µM)	viability, T/C (compound 0.03 µM)	viability, T/C (compound 0.0949 µM)	viability, T/C (compound 0.3 µM)	viability, T/C (compound 0.00316 µM)	viability, T/C (compound 0.01 µM)
> 10 µM	C#Cc1c(F)ccc2cc(O)cc(-c3ncc4c(N5CC6CCC(C5)N6)nc(OCC56CCCN5CC(F)C6)nc4c3F)c12 (configuration not stated)	95.8% and 117%	100% and 96.1%	90.8% and 110%	92.2% and 105%	103% and 100%	81.8% and 86.7%								
5.2 µM and 6.13 µM	C=C(F)C(=O)N1CCN(c2nc(OCC3CCCN3C)nc3c2CCN(c2cccc4cccc(Cl)c24)C3)CC1CC#N (configuration not stated)	97.6% and 102%	97.9% and 102%	92.6% and 96.1%	102%	86.3% and 96.5%	2.35% and 15.5%								
> 10 µM	C=CC(=O)N1CCN(c2nc(=O)n(-c3c(C)ccnc3C(C)C)c3nc(-c4c(O)cccc4F)c(F)cc23)C(C)C1 (configuration not stated)	95.8%	97.3% and 99.5%	102% and 108%	106% and 103%	110% and 114%	94.6% and 83%								
6.49 µM and 6.29 µM	CC1(C)CCC(CN2CCN(c3ccc(C(=O)NS(=O)(=O)c4ccc(NCC5CCOCC5)c([N+](=O)[O-])c4)c(Oc4cnc5[nH]ccc5c4)c3)CC2)=C(c2ccc(Cl)cc2)C1	102% and 88.4%	92% and 101%	105% and 99.1%	102% and 106%	111% and 121%	18.4% and 14.2%								
0.483 µM and 0.891 µM	CCN1CCN(Cc2ccc(Nc3ncc(F)c(-c4cc(F)c5nc(C)n(C(C)C)c5c4)n3)nc2)CC1	86.5% and 84.8%	68.3% and 76.1%	52.7% and 61.5%	46.3% and 48.5%									91.2% and 109%	86.9% and 101%

From PubChem BioAssay AID2060607 (Molecular Pharmacology Branch, DTP, NCI, 2025)
